{
  "source": "patent US20090169642A1",
  "about": "“RECONSTRUCTED LIVING ADIPOSE TISSUE” (priority 2005, published 2009)",
  "key": {"[1]": {"test_system": "adipose-derived stromal cells", "test": "Quantification of adipose differentiation by Oil Red O staining", "assay_type": "cell-based, human", "conditions": "fresh stromal cells not submitted to freezing, medium with vs without ascorbic acid", "protocol": "Quantification of adipose differentiation. After 14 days of differentiation, independently of the time spent in culture before the time of adipogenic induction, Oil Red 0 (ORO) staining of the cytoplasmic neutral lipids of the droplets were performed according to a modification from [Kuri-Harcuch W et al. 1978; 75(12):6107-9, Ramirez-Zacarias J L et al. Histochemistry 1992; 97(6):493-7]. Briefly, cultures were rinsed, fixed with 10% buffered formalin, stained with 0.3% ORO in isopropanol and extracted with 4% Nonidet/isopropanol for quantification at 520 nm using a SpectraMax Plus™ spectrometer (Molecular Device) with SoftmaxPro™ Ver 4.7.1."}, "[2]": {"test_system": "tissue-engineered adipose sheets", "test": "Lipolysis measurements (glycerol release from adipose tissue sheets)", "assay_type": "cell-based, human", "protocol": "Lipolysis measurements. The lipolytic cell response of the adipose tissue sheets cultured for 27 days was assessed by measuring the amount of glycerol released into the incubation medium after treatment with 1 μM isoproterenol or its appropriate vehicle control. The tissues were previously incubated in serum-free medium for a minimum of 2 days to avoid interference with serum factors, and rinsed with serum-free medium before the assay. After 1, 2, 4 and 24 hours, the conditioned medium was immediately tested for the release of glycerol using an enzyme-coupled glycerol assay based on a colorimetric quantification (Sigma)."}},
  "data": [
    {"smiles": "O=C1O[C@H]([C@@H](O)CO)C(O)=C1O", "note": "[ascorbic acid]", "values": [
      {"measurement": "adipocyte differentiation (ORO staining)", "setting": "[1]", "result": "can promote adipocyte differentiation"}
    ]},
    {"smiles": "CC(C)NCC(O)c1ccc(O)c(O)c1", "note": "(stereo not drawn) [Isoproterenol]", "values": [
      {"measurement": "time of peak in glycerol release post-stimulation", "setting": "[2]; 1 μm isoproterenol, LA adipose tissue sheet cells in P3, adipocytes differentiated for 20 days, relative to basal levels", "result": 2, "unit": "h"},
      {"measurement": "lipolytic activation (hydrolysis of triglycerides into fatty acids and glycerol)", "setting": "[2]; isoproterenol 1 μM, adipose constructs from lipoaspirated fat in P3, 20 days of in vitro differentiation", "result": "induced the hydrolysis of triglycerides"}
    ]}
  ]
}
